Test results from PubChem BioAssay AID248 (DTP/NCI, 2004).
Values joined by “and” are separate entries in the source; they are usually repeats but may differ in a detail not shown here. Equal values may be shown once. Toxic doses and inconclusive results are not listed. No stated cut-off is given here; in the data, active means T/C of 150% or more; inactive means T/C below 125%.

Test system: L1210 leukemia ip in BDF1 mice, survival T/C
Assay: NCI In Vivo Anticancer Drug Screen. Data for tumor model L1210 Leukemia (intraperitoneal) in B6D2F1 (BDF1) mice
Settings: endpoint: mean survival time, higher = longer survival
Method in brief: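 In this screen, tumor-bearing mice given compound are compared to those given vehicle, and their survival values are reported as a treated-to-control quotient.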

[1] = dose: 100.0 mg/kg/injection, schedule: Q01DX001 (ip), vehicle: Klucel (hydroxypropylcellulose) (HPC)
[2] = dose: 100.0 mg/kg/injection, schedule: Q01DX009 (ip), vehicle: Klucel (hydroxypropylcellulose) (HPC)
[3] = dose: 200.0 mg/kg/injection, schedule: Q01DX001 (ip), vehicle: Klucel (hydroxypropylcellulose) (HPC)
[4] = dose: 200.0 mg/kg/injection, schedule: Q01DX009 (ip), vehicle: Klucel (hydroxypropylcellulose) (HPC)
[5] = dose: 400.0 mg/kg/injection, schedule: Q01DX001 (ip), vehicle: Klucel (hydroxypropylcellulose) (HPC)
[6] = dose: 100.0 mg/kg/injection, schedule: Q01DX001 (ip), vehicle: saline
[7] = dose: 200.0 mg/kg/injection, schedule: Q01DX001 (ip), vehicle: saline
[8] = dose: 400.0 mg/kg/injection, schedule: Q01DX001 (ip), vehicle: saline
[9] = dose: 100.0 mg/kg/injection, schedule: Q04DX002 (ip), vehicle: saline with Tween-80
[10] = dose: 200.0 mg/kg/injection, schedule: Q04DX002 (ip), vehicle: saline with Tween-80
[11] = dose: 400.0 mg/kg/injection, schedule: Q04DX002 (ip), vehicle: saline with Tween-80
[12] = dose: 50.0 mg/kg/injection, schedule: Q01DX001 (ip), vehicle: saline
[13] = dose: 200.0 mg/kg/injection, schedule: Q04DX003 (ip), vehicle: saline
[14] = dose: 100.0 mg/kg/injection, schedule: Q04DX003 (ip), vehicle: Klucel (hydroxypropylcellulose) (HPC)
[15] = dose: 200.0 mg/kg/injection, schedule: Q04DX003 (ip), vehicle: Klucel (hydroxypropylcellulose) (HPC)
[16] = dose: 400.0 mg/kg/injection, schedule: Q04DX003 (ip), vehicle: Klucel (hydroxypropylcellulose) (HPC)
[17] = dose: 100.0 mg/kg/injection, schedule: Q01DX009 (ip), vehicle: saline with Tween-80
[18] = dose: 200.0 mg/kg/injection, schedule: Q01DX009 (ip), vehicle: saline with Tween-80

Measured: T/C

O=C1CC(O)(c2ccccc2)C2(c3ccccc3)OC2O1 (stereo unspecified)
inactive: [1] 101 % of control | [2] 96 % of control | [3] 101 % of control | [4] 93 % of control | [5] 101 % of control | dose: 400.0 mg/kg/injection, schedule: Q01DX009 (ip), vehicle: Klucel (hydroxypropylcellulose) (HPC) 95 % of control

CCOCCOC(=O)c1ccc(C(=N)OCC)cc1
inactive: [6] 90 % of control | [7] 90 % of control | [8] 86 % of control

CCCOC(=O)CCOC
inactive: [6] 94 % of control | [7] 103 % of control | [8] 103 % of control

C#CCOC(=O)C(Cl)(Cl)Cl
inactive: dose: 100.0 mg/kg/injection, schedule: Q04DX002 (ip), vehicle: other 107 % of control | dose: 200.0 mg/kg/injection, schedule: Q04DX002 (ip), vehicle: other 96 % of control

O=C(NCCCCNC(=O)Nc1cccc(C2=NCCN2)c1)Nc1cccc(C2=NCCN2)c1
inactive: dose: 12.0 mg/kg/injection, schedule: Q01DX Z (ip), vehicle: carboxymethylcellulose (CMC) 114 % of control | dose: 23.0 mg/kg/injection, schedule: Q01DX Z (ip), vehicle: carboxymethylcellulose (CMC) 100 % of control | dose: 46.0 mg/kg/injection, schedule: Q01DX Z (ip), vehicle: carboxymethylcellulose (CMC) 108 % of control

CC(C)(C)C1(C)OCCCO1
inactive: [9] 101 % of control | [10] 108 % of control | [11] 87 % of control

Cc1c(/C=N/NC(=O)CCCC(=O)N/N=C/c2c(C)n(C)n(-c3ccccc3)c2=O)c(=O)n(-c2ccccc2)n1C
inactive: [12] 102 % of control | [6] 93 % of control

CC(C)(O)/C=C/C(=O)[C@](C)(O)[C@H]1[C@H](O)C[C@@]2(C)[C@@H]3CC=C4[C@@H](C[C@H](O)C(=O)C4(C)C)[C@]3(C)C(=O)C[C@]12C
inactive: dose: 0.5 mg/kg/injection, schedule: Q01DX001 (sc), vehicle: steriod suspending solution 102 % of control | dose: 1.0 mg/kg/injection, schedule: Q01DX001 (sc), vehicle: steriod suspending solution 98 % of control

CCN(CC)Cc1c(C)[nH]c2ccc(N(C)C)cc2c1=O
inactive: dose: 50.0 mg/kg/injection, schedule: Q01DX009 (ip), vehicle: saline 101 % of control | dose: 100.0 mg/kg/injection, schedule: Q01DX009 (ip), vehicle: saline 106 % of control | dose: 100.0 mg/kg/injection, schedule: Q04DX003 (ip), vehicle: saline 115 % of control | dose: 200.0 mg/kg/injection, schedule: Q01DX009 (ip), vehicle: saline 92 % of control | [13] 109 % of control

OC(CN1CCCCC1)c1ccncc1 (stereo unspecified)
inactive: dose: 75.0 mg/kg/injection, schedule: Q04DX003 (ip), vehicle: saline 94 % of control | dose: 150.0 mg/kg/injection, schedule: Q04DX003 (ip), vehicle: saline 94 % of control | dose: 300.0 mg/kg/injection, schedule: Q04DX003 (ip), vehicle: saline 96 % of control

CCCCN1CC2CCCC1O2 (stereo unspecified)
inactive: [12] 97 % of control | [6] 95 % of control

O=C(O)CCC(=O)c1ccc2sc3ccccc3c2c1
inactive: dose: 25.0 mg/kg/injection, schedule: Q01DX009 (ip), vehicle: Klucel (hydroxypropylcellulose) (HPC) 106 % of control | dose: 50.0 mg/kg/injection, schedule: Q01DX009 (ip), vehicle: Klucel (hydroxypropylcellulose) (HPC) 100 % of control | [2] 97 % of control and 106 % of control | [14] 98 % of control | [15] 103 % of control | [16] 89 % of control

Cc1cc([N+](=O)[O-])cc(C)c1C
inactive: [14] 98 % of control | [15] 102 % of control | [16] 107 % of control

O=C(O)CCCCCCCCC(=O)c1cc(O)ccc1O
inactive: [1] 94 % of control | [3] 94 % of control | [5] 106 % of control

COC(=O)c1ccccc1NC(=O)Nc1cccc(C(F)(F)F)c1
inactive: dose: 100.0 mg/kg/injection, schedule: Q04DX002 (ip), vehicle: Klucel (hydroxypropylcellulose) (HPC) 101 % of control | dose: 200.0 mg/kg/injection, schedule: Q04DX002 (ip), vehicle: Klucel (hydroxypropylcellulose) (HPC) 92 % of control | dose: 400.0 mg/kg/injection, schedule: Q04DX002 (ip), vehicle: Klucel (hydroxypropylcellulose) (HPC) 105 % of control

CCc1cccc(OC/C=C(\C)CC/C=C(\C)CCC2OC2(C)C)c1 (stereo unspecified)
inactive: [9] 103 % of control | [10] 97 % of control | [11] 100 % of control

Cc1ccc(S(=O)(=O)NC(=O)N(C)c2cc(N3CCCC3)ccn2)cc1
inactive: [6] 102 % of control | [7] 96 % of control | [8] 100 % of control

Nc1nc(Nc2cccc(Cl)c2)cc(=O)[nH]1
inactive: dose: 100.0 mg/kg/injection, schedule: Q01DX Z (ip), vehicle: methylcellulose (MC) 90 % of control | dose: 200.0 mg/kg/injection, schedule: Q01DX Z (ip), vehicle: methylcellulose (MC) 99 % of control

Nc1nc2nc(-c3ccccc3)nc(N)c2nc1-c1ccc(N(CCO)CCO)cc1
inactive: dose: 45.0 mg/kg/injection, schedule: Q01DX001 (ip), vehicle: saline 102 % of control | dose: 67.0 mg/kg/injection, schedule: Q01DX001 (ip), vehicle: saline 108 % of control | dose: 150.0 mg/kg/injection, schedule: Q01DX001 (ip), vehicle: saline 91 % of control | [7] 95 % of control | [8] 95 % of control

O=C1/C(=C/c2ccccc2)CCC/C1=C\c1ccccc1
inactive: [9] 92 % of control | [10] 92 % of control | [11] 95 % of control

Nc1nc(N)c(-c2ccc(Cl)c(Cl)c2)c(C=O)n1
inactive: [6] 107 % of control | [7] 114 % of control | [8] 111 % of control

Cc1ccc(S(=O)(=O)/C=C(/I)c2ccccc2)cc1
inactive: [17] 104 % of control | dose: 100.0 mg/kg/injection, schedule: Q04DX003 (ip), vehicle: saline with Tween-80 95 % of control | [18] 100 % of control | dose: 200.0 mg/kg/injection, schedule: Q04DX003 (ip), vehicle: saline with Tween-80 92 % of control | dose: 400.0 mg/kg/injection, schedule: Q01DX009 (ip), vehicle: saline with Tween-80 94 % of control | dose: 400.0 mg/kg/injection, schedule: Q04DX003 (ip), vehicle: saline with Tween-80 104 % of control

CCCCCCOc1ccc(C(=N)N(CCCC)CCCC)c2ccccc12
inactive: dose: 5.0 mg/kg/injection, schedule: Q01DX001 (ip), vehicle: saline 97 % of control | dose: 10.0 mg/kg/injection, schedule: Q01DX001 (ip), vehicle: saline 97 % of control | dose: 20.0 mg/kg/injection, schedule: Q01DX001 (ip), vehicle: saline 89 % of control

O=C(O)c1ccccc1C(=O)Nc1ccc(O)cc1
inactive: dose: 75.0 mg/kg/injection, schedule: Q01DX009 (ip), vehicle: saline 102 % of control | dose: 150.0 mg/kg/injection, schedule: Q01DX009 (ip), vehicle: saline 100 % of control | dose: 300.0 mg/kg/injection, schedule: Q01DX009 (ip), vehicle: saline 117 % of control

Cc1c2c(c(C)c3ccncc13)S(=O)(=O)c1ccccc1-2
inactive: dose: 75.0 mg/kg/injection, schedule: Q01DX001 (ip), vehicle: other 95 % of control | dose: 150.0 mg/kg/injection, schedule: Q01DX001 (ip), vehicle: other 93 % of control | dose: 300.0 mg/kg/injection, schedule: Q01DX001 (ip), vehicle: other 93 % of control

O=[N+]([O-])c1ccc(C=Nc2cccc(C(F)(F)F)c2)cc1
inactive: [2] 90 % of control | [14] 90 % of control | [4] 98 % of control | [15] 95 % of control | [16] 93 % of control

CC/C(=C(\CC)c1ccc(OC)cc1)c1ccc(OC)cc1
inactive: dose: 50.0 mg/kg/injection, schedule: Q01DX009 (ip), vehicle: saline with Tween-80 100 % of control | [17] 89 % of control | [18] 89 % of control | [13] 87 % of control

CC(C)(C)OC1C2C=CC1C=C2 (stereo unspecified)
inactive: dose: 12.5 mg/kg/injection, schedule: Q04DX003 (ip), vehicle: Klucel (hydroxypropylcellulose) (HPC) 93 % of control | dose: 25.0 mg/kg/injection, schedule: Q04DX003 (ip), vehicle: Klucel (hydroxypropylcellulose) (HPC) 91 % of control | dose: 50.0 mg/kg/injection, schedule: Q04DX003 (ip), vehicle: Klucel (hydroxypropylcellulose) (HPC) 91 % of control | [14] 95 % of control
